These results are taken from PMC12077194, “Structural basis for spermidine recognition and modulation of Acinetobacter baumannii multidrug efflux regulator AmvR” (mBio, 2025).

Assay [1] addresses T1, AmvR (Acinetobacter baumannii, UniProt A0A7U3Y8S7).
T1 sequence (A0A7U3Y8S7 4-192): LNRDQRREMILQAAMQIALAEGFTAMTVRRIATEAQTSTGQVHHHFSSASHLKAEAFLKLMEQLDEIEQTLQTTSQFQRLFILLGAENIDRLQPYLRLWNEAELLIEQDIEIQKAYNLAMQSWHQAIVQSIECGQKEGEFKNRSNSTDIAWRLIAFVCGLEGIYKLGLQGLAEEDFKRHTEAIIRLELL
Nature of the assay: Isothermal titration calorimetry of polyamines with apo AmvR wild-type. Type of assay: binding. The conditions noted are these: ITC, 20°C, read-out: equilibrium dissociation constant (Kd). How it is done:
(§1) The AmvR^WT or mutant proteins were purified with affinity chromatography followed by size-exclusion chromatography and buffer-exchange with buffer D. The polyamines were also dissolved in Buffer D. The ITC experiments were performed at 20°C using a MicroCal PEAQ-ITC (Malvern Panalytical Ltd) using 20 injections of 2 µL or 25 injections of 1.6 µL. A solution of 100 µM AmvR wild-type or mutants was loaded into the cell, whereas a 1 mM solution of polyamines was loaded into the syringe. The measured heat changes of the binding reactions were integrated and analyzed using the standard “one set of sites” model implemented in the Origin software package (OriginLab) to determine the binding stoichiometry (N-value) and the equilibrium dissociation constant (Kd).

Assay [2] addresses AmvR (a.a. 4-192) from Acinetobacter baumannii, wild type (Acinetobacter baumannii). Nature of the assay: SEC; Superdex 75 Increase 10/300 GL, buffer F (200 mM NaCl, 20 mM Tris pH 8.0, 5 mM DTT), compared with gel filtration standards; AmvR^WT also with 2x and 10x spermidine.
Assay [3] deals with T2, AmvR^E71A (Acinetobacter baumannii, UniProt A0A7U3Y8S7, E71A).
T2 sequence (A0A7U3Y8S7 4-192 E71A): T1 sequence (A0A7U3Y8S7 4-192)
Nature of the assay: ITC of polyamines with AmvR^E71A mutant. Format: binding. The method, then:
as §1

Assay [4] addresses T3, AmvR W126E (Acinetobacter baumannii, UniProt A0A7U3Y8S7, W126E).
T3 sequence (A0A7U3Y8S7 4-192 W126E): T1 sequence (A0A7U3Y8S7 4-192)
Nature of the assay: ITC of spermidine with AmvR W126E mutant. Format: binding. The method, then:
as §1

The target of assay [5] is T4, AmvR L99E (Acinetobacter baumannii, UniProt A0A7U3Y8S7, L99E).
T4 sequence (A0A7U3Y8S7 4-192 L99E): T1 sequence (A0A7U3Y8S7 4-192)
Nature of the assay: ITC of spermidine with AmvR L99E mutant. Format: binding. The method, then: as §1

The target of assay [6] is T5, AmvR L86A (Acinetobacter baumannii, UniProt A0A7U3Y8S7, L86A).
T5 sequence (A0A7U3Y8S7 4-192 L86A): T1 sequence (A0A7U3Y8S7 4-192)
Nature of the assay: ITC of spermidine with AmvR L86A mutant. Format: binding. The method, then: as §1

Assay [7] concerns the target T6, AmvR N103A (Acinetobacter baumannii, UniProt A0A7U3Y8S7, N103A).
T6 sequence (A0A7U3Y8S7 4-192 N103A): T1 sequence (A0A7U3Y8S7 4-192)
Nature of the assay: ITC of spermidine with AmvR N103A mutant. Format: binding. How it is done:
as §1

In assay [8] the target is T7, AmvR E65A (Acinetobacter baumannii, UniProt A0A7U3Y8S7, E65A).
T7 sequence (A0A7U3Y8S7 4-192 E65A): T1 sequence (A0A7U3Y8S7 4-192)
Nature of the assay: ITC of spermidine with AmvR E65A mutant. Type of assay: binding. The method, then: as §1

Assay [9] addresses T8, AmvR E106A (Acinetobacter baumannii, UniProt A0A7U3Y8S7, E106A).
T8 sequence (A0A7U3Y8S7 4-192 E106A): T1 sequence (A0A7U3Y8S7 4-192)
Nature of the assay: ITC of spermidine with AmvR E106A mutant. Format: binding. How it is done: as §1

Assay [10] addresses T9, AmvR W102A (Acinetobacter baumannii, UniProt A0A7U3Y8S7, W102A).
T9 sequence (A0A7U3Y8S7 4-192 W102A): T1 sequence (A0A7U3Y8S7 4-192)
Nature of the assay: ITC of spermidine with AmvR W102A mutant. Type of assay: binding. How it is done:
as §1

Assay [11] addresses T10, AmvR^L99Q (Acinetobacter baumannii, UniProt A0A7U3Y8S7, L99Q).
T10 sequence (A0A7U3Y8S7 4-192 L99Q): T1 sequence (A0A7U3Y8S7 4-192)
Nature of the assay: ITC of spermidine with AmvR^L99Q mutant. Type of assay: binding. The method, then:
as §1

The target in assay [12] is T11, AmvR^E164A (Acinetobacter baumannii, UniProt A0A7U3Y8S7, E164A).
T11 sequence (A0A7U3Y8S7 4-192 E164A): T1 sequence (A0A7U3Y8S7 4-192)
Nature of the assay: ITC of spermidine with AmvR^E164A mutant. Type of assay: binding. How it is done:
as §1

For the compound `NCCCCN` [putrescine], the Kd in [1] was determined as 9.52 µM.
Take “AmvR (a.a. 4-192) from Acinetobacter baumannii, wild type (natural protein)”: the stoichiometry N in assay [2] came out at 2.
`NCCCNCCCCNCCCN` [spermine]: the values for the Kd in assay [1] and in [3] were 2.16 µM and 88.5 µM, respectively.
Take `NCCCCNCCCN` [spermidine]: the Kd in assay [4] stood at 7.52 µM; in assay [5] it was 5.71 µM; in [6], 6.21 µM; in [7], 1.22 µM; in assay [1], 0.73 µM; in [8], 0.96 µM. The values for the Kd in [9], in [11] and in assay [3] were 7.09 µM, 0.75 µM and 40.5 µM, respectively. Also, the KD result was “completely eliminated spermidine binding” in assay [10] and “eliminated spermidine binding” in assay [12].
With `NCCCCCN` [cadaverine], the Kd is 5.88 µM in assay [1] and 69.9 µM in [3].
